According to PMC3151248, “High-Throughput Identification of Potential Minor Histocompatibility Antigens by MHC Tetramer-Based Screening: Feasibility and Limitations” (PLoS ONE, 2011):
Like-named read-outs stand apart in the source and are kept apart here. Peptide text beside a SMILES is read from it.

System: pMHC tetramer positive T-cell lines
Conditions: 18 h
[1] = read-out: IC50, peptide concentration required for T-cell recognition (IFN γ production), HLA-A2+ T2 cells pulsed with peptide, 10-fold dilution steps from 10ug/ml, IFN γ ELISA, value given for the group of cell lines

Procedure: To examine the ligand sensitivity of the generated peptide specific cell lines, INF-γ production was measured after stimulation with T2 cells that were loaded with a range of peptide concentrations (Figure 4). In this assay (performed for 8 representative cell lines), peptide concentrations required for T-cell recognition were compared to those required for a previously identified T-cell clone that is specific for the HMHA-1H epitope.
HLA A2^+ T2 cells were pulsed with specific MiHA peptide. Peptide concentrations were titrated in 10-fold dilution steps starting from 10ug/ml. T-cell reactivity was analyzed by cytokine secretion in a standard IFN γ ELISA. Data are presented as cytokine concentration. Shown are eight representative generated T-cell lines and a high affinity control clone specific for HMHA-1H (open square).
MiHA specific T-cell lines (1×10^4) were stimulated with HLA-A2^+ T2 cells, EBV-LCLs or T-cell blasts (2,5×10^4) in 96 well plates for 18 h at 37°C and 5% CO2. Peptide pulsing was performed by incubating stimulator cells for 1 h with synthetic peptides (1 µg/ml) in IMDM containing 2% FCS and cells were washed twice before use. Cytokine release was measured by IFN γ ELISA (Sanquin) according to the manufacturer's instructions.

Row | Structure (SMILES) | IC50 [nM] | IC50 [1] [nM]
1 | CC[C@H](C)[C@H](NC(=O)[C@@H](N)CO)C(=O)N[C@@H](CCC(N)=O)C(=O)N[C@@H](CC(N)=O)C(=O)N[C@@H](Cc1ccc(O)cc1)C(=O)N[C@@H](Cc1c[nH]cn1)C(=O)N1CCC[C@H]1C(=O)N[C@@H](Cc1ccccc1)C(=O)N[C@@H](C)C(=O)O [P37 DOCK2SIQ] (H-SIQNYHPFA-OH) | ~500 | –
2 | CSCC[C@H](NC(=O)[C@@H](N)CCCCN)C(=O)N[C@@H](CC(N)=O)C(=O)N[C@H](C(=O)N[C@@H](Cc1ccccc1)C(=O)N[C@@H](CC(=O)O)C(=O)N[C@H](C(=O)N[C@@H](CC(N)=O)C(=O)N[C@@H](CC(C)C)C(=O)O)[C@@H](C)O)C(C)C [P203 ATP2A3KMN] (H-KMNVFDTNL-OH) | – | ~500
3 | CC[C@H](C)[C@H](N)C(=O)N[C@@H](CCSC)C(=O)N[C@@H](C)C(=O)N[C@H](C(=O)N[C@@H](CCC(=O)O)C(=O)N[C@@H](CC(C)C)C(=O)N[C@@H](C)C(=O)N[C@@H](CCC(=O)O)C(=O)N[C@@H](CC(C)C)C(=O)O)[C@@H](C)CC [P218 MAP4K1IMA] (H-IMAIELAEL-OH) | ~0.05 | –
4 | CC(C)C[C@H](NC(=O)[C@@H]1CCCN1C(=O)[C@H](CC(C)C)NC(=O)[C@H](C)NC(=O)[C@H](C)NC(=O)[C@H](Cc1c[nH]c2ccccc12)NC(=O)[C@H](CC(C)C)NC(=O)[C@@H]1CCCN1C(=O)[C@H](CC(C)C)NC(=O)[C@H](CC(C)C)NC(=O)[C@@H](N)CCCNC(=N)N)C(=O)O [P104 ZFP36L2RLL] (H-RLLPLWAALPL-OH) | ~500 | –
5 | CC(C)C[C@H](NC(=O)[C@H](CC(C)C)NC(=O)[C@H](CC(=O)O)NC(=O)[C@H](CC(=O)O)NC(=O)[C@H](Cc1c[nH]cn1)NC(=O)[C@H](CC(C)C)NC(=O)[C@@H](N)C(C)C)C(=O)N[C@@H](CCC(=O)O)C(=O)N[C@@H](C)C(=O)O [P46 HMHA1VLH] (H-VLHDDLLEA-OH) | ~0.05 | –
6 | CSCC[C@H](NC(=O)[C@@H](N)CO)C(=O)N[C@@H](CS)C(=O)N[C@@H](CCCNC(=N)N)C(=O)N[C@@H](Cc1ccccc1)C(=O)N[C@@H](CO)C(=O)N1CCC[C@H]1C(=O)N[C@@H](CC(C)C)C(=O)N[C@H](C(=O)N[C@@H](CC(C)C)C(=O)O)[C@@H](C)O [P309 HSPA6SMC] (H-SMCRFSPLTL-OH) | ~5 | –
7 | CC[C@H](C)[C@H](NC(=O)[C@H](CC(=O)O)NC(=O)[C@H](CCSC)NC(=O)CNC(=O)[C@H](Cc1ccccc1)NC(=O)[C@H](CC(C)C)NC(=O)[C@H](CCC(=O)O)NC(=O)[C@H](Cc1c[nH]cn1)NC(=O)[C@H](CC(C)C)NC(=O)[C@@H](NC(=O)[C@@H](N)CCCCN)C(C)C)C(=O)O [P91 FLT3KVL] (H-KVLHELFGMDI-OH) | – | ~5
